Eight molecules from the supplement of paper PMC11061612 can be followed below.

Each structure is given as a SMILES string.

Assay in all cases: Bliss excess, mean over the matrix (fraction); higher = more synergy
In experiment [1] the test system is SNU-175 (Colorectal Carcinoma). The method in brief:
(§1)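 After 24 hours at 37°C and 5% CO2 in 1536-well plates, cells in DMEM/F12 or RPMI plus 10% FBS received two-drug dose matrices for 72 hours. Viability came from CellTiter-Glo 2.0 luminescence and was scaled as inhibition, anchored at 0 by vehicle wells and at 1 by blank wells. Combination Emax is taken as the second-highest inhibition in the matrix, and Bliss excess as the observed combination effect less EA + EB − EA·EB, with EA and EB the single-agent effects.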

Experiment [2] concerns NKM-1 (Acute Myeloid Leukemia). In a few lines: as §1
The subject of experiment [3] is NCI-H1155 (Non-Small Cell Lung Carcinoma). The method in brief: as §1
The subject of experiment [4] is HuO-3N1 (Osteosarcoma). In a few lines: as §1
In experiment [5] the test system is JHH-1 (Hepatocellular Carcinoma). The method in brief: as §1
In experiment [6] the test system is RMG-I (Ovarian Carcinoma). In a few lines:
as §1

The subject of experiment [7] is AsPC-1 (Pancreatic Carcinoma). In a few lines: as §1
Experiment [8] relates to OVTOKO (Ovarian Carcinoma). The method in brief:
as §1

The subject of experiment [9] is AN3-CA (Endometrial Carcinoma). In a few lines: as §1
In experiment [10] the test system is RPMI-8866 (Chronic Myelogenous Leukemia). The method in brief:
as §1

Experiment [11] relates to KYSE-70 (Esophageal Squamous Cell Carcinoma). The method in brief: as §1
Experiment [12] has as its system PANC-02-03 (Pancreatic Carcinoma). In a few lines: as §1
In experiment [13] the test system is NCI-H1755 (Lung Adenocarcinoma). The method in brief:
as §1

The test system of experiment [14] is RT4 (Bladder Carcinoma). The method in brief: as §1
The subject of experiment [15] is SK-MM-2 (Plasma Cell Myeloma). The method in brief: as §1
Experiment [16] relates to KYM-1 (Rhabdomyosarcoma). In a few lines: as §1
Experiment [17] relates to SJRH30 (Rhabdomyosarcoma). In a few lines: as §1
Experiment [18] has as its system OV-90 (Ovarian Carcinoma). The method in brief: as §1
In experiment [19] the test system is HSC-3 (Oral Cavity Carcinoma). The method in brief:
as §1

As for `NC1(C(=O)N[C@@H](CCO)c2ccc(Cl)cc2)CCN(c2ncnc3[nH]ccc23)CC1` [Capivasertib] + CC(C)n1c(=O)n(C)c2cnc3cc(F)c(-c4ccc(OCCCN5CCCCC5)nc4)cc3c21 [AZD1390] (first compound max 10 µM, 7x7, partner max 0.3 µM), the Bliss excess in [1] is -0.0346; in experiment [2], -0.111; in [3] it was -0.031; in experiment [4] it was -0.101; in experiment [5], -0.0495; in experiment [6], -0.062. The Bliss excess in experiment [7] is -0.0512; in [8], -0.0752; in experiment [9], -0.0057; in experiment [10] it was 0.0503; in [11], -0.063; in experiment [12], -0.013. Moreover, the Bliss excess was -0.0407 in experiment [13]; -0.0651 in [14]; -0.115 in experiment [15]; -0.0278 in experiment [16]; -0.0373 in experiment [17]; -0.0325 in experiment [18]. Further, the Bliss excess in experiment [19] is -0.0746.

With `COc1nnc2ccc(N3CCC(c4ccc(OCCN5CCN(C)C(=O)[C@H]5C)cc4)CC3)nn12` [AZD5153] + C[C@@H]1COCCN1C2=NC(=NC(=C2)C3(CC3)[S@](=N)(=O)C)C4=C5C=CNC5=NC=C4 [AZD6738] (first compound max 1 µM, 7x7, partner max 10 µM), the Bliss excess in experiment [1] is 0.0289; in experiment [2], -0.0373; in experiment [3], 0.0406; in experiment [4], 0.0085; in [5] it was 0.0386; in experiment [6], -0.0261. The Bliss excess was 0.0778 in experiment [7]; 0.0999 in experiment [8]; -0.0311 in experiment [9]; -0.0364 in [10]; -0.0358 in [11]; -0.0366 in experiment [12]. The Bliss excess in experiment [13] is 0.0198; in experiment [14] it was 0.0449; in experiment [15] it was -0.0831; in experiment [16], -0.0398; in [17], 0.0588; in [18] it was -0.0249. Besides, the Bliss excess in experiment [19] was -0.0181.

Take `NC1(C(=O)N[C@@H](CCO)c2ccc(Cl)cc2)CCN(c2ncnc3[nH]ccc23)CC1` [Capivasertib] + CC(=O)c1c(C)c2cnc(Nc3ccc(N4CCNCC4)cn3)nc2n(C2CCCC2)c1=O [Palbociclib] (first compound max 10 µM, 7x7, partner max 10 µM): the Bliss excess in experiment [1] is -0.0442; in [2], -0.0204; in [3] it was -0.0084; in experiment [4], -0.105; in [5], -0.0687; in experiment [6] it was -0.0098. Further, the Bliss excess in experiment [7] was -0.025; in [8] it was -0.0688; in experiment [9] it was -0.0282; in experiment [10], 0.0215; in experiment [11], 0.0188; in [12], -0.0351. Also, the Bliss excess was 0.0036 in experiment [13]; 0.0114 in experiment [14]; -0.0005 in [15]; -0.0312 in experiment [16]; -0.0084 in experiment [17]; -0.0562 in experiment [18]. Also, in experiment [19], the Bliss excess was -0.0076.

For `NC1(C(=O)N[C@@H](CCO)c2ccc(Cl)cc2)CCN(c2ncnc3[nH]ccc23)CC1` [Capivasertib] + Cn1cnc2c(F)c(Nc3ccc(Br)cc3Cl)c(C(=O)NOCCO)cc21 [Selumetinib] (first compound max 10 µM, 7x7, partner max 10 µM), the Bliss excess in experiment [1] was -0.0408; in experiment [2], 0.142; in experiment [3] it was 0.0293; in [4] it was -0.0321; in experiment [5] it was -0.0896; in experiment [6] it was 0.0235. The Bliss excess is -0.039 in experiment [7]; -0.0566 in [8]; -0.0016 in experiment [9]; 0.0602 in experiment [10]; -0.0073 in experiment [11]; 0.0589 in experiment [12]. Moreover, the Bliss excess in [13] was 0.0295; in experiment [14], -0.0196; in [15], -0.0293; in [16] it was -0.0072; in experiment [17], 0.0297; in experiment [18] it was -0.0313. In addition, the Bliss excess in experiment [19] was 0.0081.

Consider `Cn1cnc2c(F)c(Nc3ccc(Br)cc3Cl)c(C(=O)NOCCO)cc21` [Selumetinib] + C=CCn1c(=O)c2cnc(Nc3ccc(N4CCN(C)CC4)cc3)nc2n1-c1cccc(C(C)(C)O)n1 [AZD1775] (first compound max 10 µM, partner max 1 µM), for which the Bliss excess in [1] is -0.0174; in experiment [2], -0.0478; in experiment [3] it was -0.0474; in experiment [4] it was -0.0972; in experiment [5], 0.0171; in [6], -0.0005. The Bliss excess in [7] is -0.046; in experiment [8] it was -0.114; in experiment [9], -0.0495; in experiment [10], -0.0049; in [11] it was -0.0339; in experiment [12], -0.0033. Besides, the Bliss excess in [13] was 0.0496; in [14] it was -0.0127; in [15] it was -0.0198; in [16], -0.0696; in experiment [17] it was -0.0372; in experiment [18], -0.0274. Also, the Bliss excess in [19] is -0.0355.

For `CS(=O)(=O)CCNCc1ccc(-c2ccc3ncnc(Nc4ccc(OCc5cccc(F)c5)c(Cl)c4)c3c2)o1` [Lapatinib] + C[C@@H](Oc1cc(-c2cnn(C3CCNCC3)c2)cnc1N)c1c(Cl)ccc(F)c1Cl [Crizotinib] (first compound max 10 µM, 7x7, partner max 10 µM), the Bliss excess in [1] is -0.0001; in experiment [2] it was -0.0604; in experiment [3] it was -0.0185; in experiment [4], -0.0423; in [5] it was -0.0906; in experiment [6] it was -0.0367. Moreover, the Bliss excess in [7] is -0.031; in [8], -0.0437; in experiment [9], -0.0223; in [10], 0.005; in experiment [11], -0.0359; in [12], -0.0617. Further, the Bliss excess was -0.0468 in [13]; -0.0511 in experiment [14]; -0.0207 in experiment [15]; -0.0515 in experiment [16]; -0.0323 in experiment [17]; -0.0019 in [18]. Also, the Bliss excess in experiment [19] was -0.0395.

On to `NC1(C(=O)N[C@@H](CCO)c2ccc(Cl)cc2)CCN(c2ncnc3[nH]ccc23)CC1` [Capivasertib] + CCN(CCO)CCCOc1ccc2c(Nc3cc(CC(=O)Nc4cccc(F)c4)[nH]n3)ncnc2c1 [AZD2811] (first compound max 10 µM, 7x7, partner max 1 µM), for which the Bliss excess in [1] was 0.0058; in experiment [2], -0.0299; in experiment [3] it was -0.0152; in experiment [4], -0.0379; in experiment [5] it was -0.0517; in [6], -0.0214. Also, the Bliss excess in experiment [7] is -0.0655; in experiment [8] it was -0.0109; in experiment [9], 0.0151; in experiment [10], 0.0469; in experiment [11] it was -0.0902; in [12], -0.0261. Also, the Bliss excess in experiment [13] was -0.0289; in experiment [14] it was -0.0039; in experiment [15] it was -0.0412; in experiment [16], -0.0457; in [17], 0.0224; in experiment [18], -0.0272. Besides, the Bliss excess in experiment [19] is -0.0374.

On to `CC(=O)c1c(C)c2cnc(Nc3ccc(N4CCNCC4)cn3)nc2n(C2CCCC2)c1=O` [Palbociclib] + CN(CC[C@H](CSC1=CC=CC=C1)NC2=C(C=C(C=C2)S(=O)(=O)NC(=O)C3=CC=C(C=C3)N4CCC(CC4)[C@H](C5=CC=CC=C5C6=CC=C(C=C6)Cl)O)S(=O)(=O)C(F)(F)F)CCO [AZD4320] (first compound max 10 µM, 7x7, partner max 1 µM), for which the Bliss excess is -0.0082 in experiment [1]; 0.0351 in experiment [3]; -0.0289 in experiment [4]; -0.0291 in [5]; -0.129 in experiment [7]; -0.0621 in [8]. In addition, the Bliss excess in experiment [9] was 0.0108; in experiment [10], -0.0036; in [14], -0.0409; in [17], -0.0467; in experiment [19] it was -0.0254.
